Experimental findings from the NIST ThermoML archive (doi:10.1016/j.fluid.2014.11.020) are described below.

Numbers after ± are expanded uncertainties.

The data set is described as follows: activity coefficient (dimensionless); of the first substance listed, at infinite dilution; xn = mol fraction of the nth substance listed. The settings on record: Liquid, Chromatography, x1 = 0.

In the case of `CCCCO` [butan-1-ol] + N#C[N-]C#N.N#C[N-]C#N.c1ccc(Cn2cc[n+](COCCCOC[n+]3ccn(Cc4ccccc4)c3)c2)cc1, the activity coefficient runs as follows: (323.15 K) 1.8 ± 0.12; (333.15 K) 1.68 ± 0.11; (343.15 K) 1.61 ± 0.11.

On to `c1ccsc1` [thiophene] + Cn1cc[n+](COCCCOC[n+]2ccn(C)c2)c1.N#C[N-]C#N.N#C[N-]C#N, for which the activity coefficient reads like this: (323.15 K) 1.58 ± 0.1; (333.15 K) 1.63 ± 0.11; (343.15 K) 1.68 ± 0.11.

For the compound `CCC(C)CC` [3-methylpentane] + CCCOC[n+]1ccn(Cc2ccccc2)c1.N#C[N-]C#N, the activity coefficient (323.15 K) is 28.5 ± 1.9.

Turning to `CCCC(C)=O` [pentan-2-one] + CCCCCCCCn1cc[n+](COCCC)c1C.N#C[N-]C#N, the activity coefficient is, setting by setting: (323.15 K) 0.95 ± 0.06; (333.15 K) 0.96 ± 0.06; (343.15 K) 0.98 ± 0.06.

Consider `CCO` [ethanol] + CCCOC[n+]1ccn(C)c1.O=S(=O)([N-]S(=O)(=O)C(F)(F)F)C(F)(F)F, for which the activity coefficient reads like this: (323.15 K) 1.51 ± 0.1; (333.15 K) 1.36 ± 0.09; (343.15 K) 1.26 ± 0.08.

On to `CCc1ccccc1` [ethylbenzene] + Cn1cc[n+](COCCCOC[n+]2ccn(C)c2)c1.N#C[N-]C#N.N#C[N-]C#N, for which the activity coefficient (323.15 K) turned out to be 11.2 ± 0.77, the activity coefficient (333.15 K) was 10.9 ± 0.75 and the activity coefficient (343.15 K) is 10.7 ± 0.73.

As for `ClC(Cl)Cl` [trichloromethane] + CCCOC[n+]1ccn(C)c1.N#C[N-]C#N, the activity coefficient is, setting by setting: (323.15 K) 0.8 ± 0.05; (333.15 K) 0.85 ± 0.05; (343.15 K) 0.92 ± 0.06.

On to `CCc1ccccc1` [ethylbenzene] + CCCCCCCCn1cc[n+](COCCC)c1C.N#C[N-]C#N, for which the activity coefficient (323.15 K) amounted to 1.48 ± 0.1, the activity coefficient (333.15 K) turned out to be 1.5 ± 0.1 and the activity coefficient (343.15 K) was found to be 1.54 ± 0.1.

In the case of `CCc1ccccc1` [ethylbenzene] + CCCOC[n+]1ccn(C)c1.N#C[N-]C#N, the activity coefficient is 6 ± 0.41 (323.15 K), 6.06 ± 0.41 (333.15 K) and 6.12 ± 0.42 (343.15 K).

Consider `CO` [methanol] + Cn1cc[n+](COCCCOC[n+]2ccn(C)c2)c1.O=S(=O)([N-]S(=O)(=O)C(F)(F)F)C(F)(F)F.O=S(=O)([N-]S(=O)(=O)C(F)(F)F)C(F)(F)F, for which the activity coefficient was determined as 0.76 ± 0.05 (323.15 K), 0.75 ± 0.05 (333.15 K) and 0.68 ± 0.05 (343.15 K).

Turning to `CCOCC` [diethyl ether] + CCCCCCCCn1cc[n+](COCCCOC[n+]2ccn(CCCCCCCC)c2C)c1C.O=S(=O)([N-]S(=O)(=O)C(F)(F)F)C(F)(F)F.O=S(=O)([N-]S(=O)(=O)C(F)(F)F)C(F)(F)F, the activity coefficient (323.15 K) was 0.86 ± 0.06, the activity coefficient (333.15 K) was 0.88 ± 0.06 and the activity coefficient (343.15 K) came out at 0.92 ± 0.06.

As to `CO` [methanol] + CCCOC[n+]1ccn(C)c1.N#C[N-]C#N, the activity coefficient amounted to 0.44 ± 0.04 (323.15 K), 0.44 ± 0.04 (333.15 K) and 0.45 ± 0.04 (343.15 K).

With `Cc1ccccc1C` [1,2-dimethylbenzene] + CCCCCCCCn1cc[n+](COCCCOC[n+]2ccn(CCCCCCCC)c2C)c1C.O=S(=O)([N-]S(=O)(=O)C(F)(F)F)C(F)(F)F.O=S(=O)([N-]S(=O)(=O)C(F)(F)F)C(F)(F)F, the activity coefficient runs as follows: (323.15 K) 0.68 ± 0.05; (333.15 K) 0.66 ± 0.05; (343.15 K) 0.66 ± 0.05.

As for `C[N+](=O)[O-]` [nitromethane] + CCCOC[n+]1ccn(Cc2ccccc2)c1.N#C[N-]C#N, the activity coefficient is, setting by setting: (323.15 K) 1.06 ± 0.07; (333.15 K) 0.71 ± 0.05; (343.15 K) 0.72 ± 0.05.

In the case of `CC(C)O` [propan-2-ol] + CCCCCCCCn1cc[n+](COCCC)c1C.O=S(=O)([N-]S(=O)(=O)C(F)(F)F)C(F)(F)F, the activity coefficient (323.15 K) came to 1.16 ± 0.07, the activity coefficient (333.15 K) was found to be 1.05 ± 0.07 and the activity coefficient (343.15 K) turned out to be 0.99 ± 0.06.

In the case of `CCCCCCCCCC` [decane] + CCCOC[n+]1ccn(C)c1.F[B-](F)(F)F, the activity coefficient by setting is: (323.15 K) 635 ± 44; (333.15 K) 573 ± 39; (343.15 K) 500 ± 34.

As to `CCC(=O)CC` [pentan-3-one] + N#C[N-]C#N.N#C[N-]C#N.c1ccc(Cn2cc[n+](COCCCOC[n+]3ccn(Cc4ccccc4)c3)c2)cc1, the activity coefficient was 2.88 ± 0.2 (323.15 K), 2.89 ± 0.2 (333.15 K) and 2.91 ± 0.2 (343.15 K).

Regarding `CCCC(C)=O` [pentan-2-one] + N#C[N-]C#N.N#C[N-]C#N.c1ccc(Cn2cc[n+](COCCCOC[n+]3ccn(Cc4ccccc4)c3)c2)cc1, the activity coefficient by setting is: (323.15 K) 3.1 ± 0.21; (333.15 K) 3.05 ± 0.21; (343.15 K) 3.08 ± 0.21.

`C1CCCCCC1` [cycloheptane] + CCCOC[n+]1ccn(C)c1.F[B-](F)(F)F: the activity coefficient (323.15 K) was determined as 153 ± 11, the activity coefficient (333.15 K) is 240 ± 16 and the activity coefficient (343.15 K) came to 245 ± 17.

As for `CCO` [ethanol] + CCCOC[n+]1ccn(Cc2ccccc2)c1.N#C[N-]C#N, the activity coefficient reads like this: (323.15 K) 0.73 ± 0.05; (333.15 K) 0.6 ± 0.04; (343.15 K) 0.59 ± 0.04.

With `Cc1cccc(C)c1` [1,3-dimethylbenzene] + CCCOC[n+]1ccn(C)c1.N#C[N-]C#N, the activity coefficient stood at 6.24 ± 0.43 (323.15 K), 6.24 ± 0.43 (333.15 K) and 6.41 ± 0.44 (343.15 K).

Regarding `Cc1cccc(C)c1` [1,3-dimethylbenzene] + CCCOC[n+]1ccn(Cc2ccccc2)c1.F[B-](F)(F)F, the activity coefficient was 5.41 ± 0.37 (323.15 K), 4.91 ± 0.33 (333.15 K) and 4.91 ± 0.33 (343.15 K).

For `CCO` [ethanol] + CCCOC[n+]1ccn(C)c1.N#C[N-]C#N, the activity coefficient runs as follows: (323.15 K) 0.74 ± 0.05; (333.15 K) 0.73 ± 0.05; (343.15 K) 0.71 ± 0.05.

Regarding `C[N+](=O)[O-]` [nitromethane] + CCCCCCCCn1cc[n+](COCCC)c1C.O=S(=O)([N-]S(=O)(=O)C(F)(F)F)C(F)(F)F, the activity coefficient runs as follows: (323.15 K) 0.56 ± 0.04; (333.15 K) 0.52 ± 0.04; (343.15 K) 0.52 ± 0.04.

In the case of `ClC(Cl)(Cl)Cl` [tetrachloromethane] + CCCCCCCCn1cc[n+](COCCC)c1C.N#C[N-]C#N, the activity coefficient (323.15 K) was found to be 1.21 ± 0.08, the activity coefficient (333.15 K) came out at 1.23 ± 0.08 and the activity coefficient (343.15 K) is 1.24 ± 0.08.

Turning to `CCC(C)CC` [3-methylpentane] + CCCCCCCCn1cc[n+](COCCCOC[n+]2ccn(CCCCCCCC)c2C)c1C.N#C[N-]C#N.N#C[N-]C#N, the activity coefficient (323.15 K) came out at 3.48 ± 0.24.

For the compound `CCCC(C)=O` [pentan-2-one] + CCCOC[n+]1ccc(N(C)C)cc1.O=S(=O)([N-]S(=O)(=O)C(F)(F)F)C(F)(F)F, the activity coefficient turned out to be 0.75 ± 0.05 (323.15 K), 0.78 ± 0.05 (333.15 K) and 0.78 ± 0.05 (343.15 K).

In the case of `CCO` [ethanol] + CCCCCCCCn1cc[n+](COCCCOC[n+]2ccn(CCCCCCCC)c2C)c1C.N#C[N-]C#N.N#C[N-]C#N, the activity coefficient (323.15 K) was 0.3 ± 0.03, the activity coefficient (333.15 K) was found to be 0.29 ± 0.03 and the activity coefficient (343.15 K) came to 0.29 ± 0.03.

Regarding `CC(C)OC(C)C` [diisopropyl ether] + Cn1cc[n+](COCCCOC[n+]2ccn(C)c2)c1.O=S(=O)([N-]S(=O)(=O)C(F)(F)F)C(F)(F)F.O=S(=O)([N-]S(=O)(=O)C(F)(F)F)C(F)(F)F, the activity coefficient by setting is: (323.15 K) 6.31 ± 0.43; (333.15 K) 6.51 ± 0.44; (343.15 K) 5.54 ± 0.38.

In the case of `C#CCCCC` [1-hexyne] + CCCOC[n+]1ccc(N(C)C)cc1.O=S(=O)([N-]S(=O)(=O)C(F)(F)F)C(F)(F)F, the activity coefficient by setting is: (323.15 K) 2.51 ± 0.17; (333.15 K) 2.5 ± 0.17; (343.15 K) 2.5 ± 0.17.

For `Cc1cccc(C)c1` [1,3-dimethylbenzene] + CCCCCCCCn1cc[n+](COCCC)c1C.N#C[N-]C#N, the activity coefficient by setting is: (323.15 K) 1.54 ± 0.1; (333.15 K) 1.54 ± 0.1; (343.15 K) 1.57 ± 0.1.

As for `CCCCCCCC` [octane] + CCCOC[n+]1ccn(C)c1.N#C[N-]C#N, the activity coefficient worked out at 155 ± 11 (323.15 K), 135 ± 9.2 (333.15 K) and 112 ± 7.7 (343.15 K).

Regarding `CCCCCCCCCCC` [undecane] + CCCCCCCCn1cc[n+](COCCC)c1C.N#C[N-]C#N, the activity coefficient was determined as 20.6 ± 1.4 (323.15 K), 19.6 ± 1.3 (333.15 K) and 18.2 ± 1.2 (343.15 K).

Regarding `CCO` [ethanol] + CCCCCCCCn1cc[n+](COCCCOC[n+]2ccn(CCCCCCCC)c2C)c1C.O=S(=O)([N-]S(=O)(=O)C(F)(F)F)C(F)(F)F.O=S(=O)([N-]S(=O)(=O)C(F)(F)F)C(F)(F)F, the activity coefficient (323.15 K) turned out to be 0.64 ± 0.04, the activity coefficient (333.15 K) is 0.58 ± 0.04 and the activity coefficient (343.15 K) worked out at 0.55 ± 0.04.

Regarding `C[N+](=O)[O-]` [nitromethane] + CCCOC[n+]1ccc(N(C)C)cc1.O=S(=O)([N-]S(=O)(=O)C(F)(F)F)C(F)(F)F, the activity coefficient runs as follows: (323.15 K) 0.54 ± 0.04; (333.15 K) 0.55 ± 0.04; (343.15 K) 0.54 ± 0.04.

With `ClC(Cl)Cl` [trichloromethane] + CCCOC[n+]1ccc(N(C)C)cc1.O=S(=O)([N-]S(=O)(=O)C(F)(F)F)C(F)(F)F, the activity coefficient runs as follows: (323.15 K) 0.71 ± 0.05; (333.15 K) 0.75 ± 0.05; (343.15 K) 0.79 ± 0.05.

On to `CC(C)O` [propan-2-ol] + CCCOC[n+]1ccn(Cc2ccccc2)c1.N#C[N-]C#N, for which the activity coefficient reads like this: (323.15 K) 0.85 ± 0.05; (333.15 K) 0.84 ± 0.05; (343.15 K) 0.82 ± 0.05.

Regarding `CC(C)O` [propan-2-ol] + CCCOC[n+]1ccn(C)c1.N#C[N-]C#N, the activity coefficient (323.15 K) was 1.1 ± 0.07, the activity coefficient (333.15 K) is 1.07 ± 0.07 and the activity coefficient (343.15 K) stood at 1.04 ± 0.07.

For `c1ccsc1` [thiophene] + CCCCCCCCn1cc[n+](COCCC)c1C.N#C[N-]C#N, the activity coefficient runs as follows: (323.15 K) 0.66 ± 0.05; (333.15 K) 0.66 ± 0.05; (343.15 K) 0.64 ± 0.04.

Consider `C#CCCCC` [1-hexyne] + CCCCCCCCn1cc[n+](COCCCOC[n+]2ccn(CCCCCCCC)c2C)c1C.O=S(=O)([N-]S(=O)(=O)C(F)(F)F)C(F)(F)F.O=S(=O)([N-]S(=O)(=O)C(F)(F)F)C(F)(F)F, for which the activity coefficient (323.15 K) is 1.13 ± 0.07, the activity coefficient (333.15 K) is 1.13 ± 0.07 and the activity coefficient (343.15 K) amounted to 1.14 ± 0.07.
